The pIC50 is −log10 of the IC50, conventionally taken in molar units.

For data set [1], the target named is IMP-1 (Serratia marcescens, UniProt P52699). Description: biochemical. Type of data set: biochemical. The conditions noted are these: fluorescence assay, CCF2-FA substrate, 2 pM enzyme, 2 hours at 25° C.; read-out: IMP-1 IC50. In outline: (§1)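 Semi-log dose-response curves, fitted with a 4-parameter model, gave IC50s. The underlying signal was CCF2-FA fluorescence following 2 hours at 25° C with enzyme, substrate and inhibitor combined.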
Sequence of IMP-1 (P52699 whole entry, looked up, species assumed): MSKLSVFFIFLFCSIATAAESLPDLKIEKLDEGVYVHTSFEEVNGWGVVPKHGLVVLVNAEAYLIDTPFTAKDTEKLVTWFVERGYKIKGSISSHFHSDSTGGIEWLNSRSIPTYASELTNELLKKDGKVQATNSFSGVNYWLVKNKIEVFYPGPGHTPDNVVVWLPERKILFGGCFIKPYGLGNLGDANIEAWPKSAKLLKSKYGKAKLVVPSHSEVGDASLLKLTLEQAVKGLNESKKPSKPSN

Data set [2] has as its target NDM-1 (Klebsiella pneumoniae, UniProt C7C422). Description: biochemical. The conditions noted are these: fluorescence assay, CCF2-FA substrate, 1 pM enzyme, 2 hours at 25° C.; read-out: NDM-1 IC50. Type of data set: biochemical. The gist of the method: as §1
For data set [3], the target named is VIM-1 (Pseudomonas aeruginosa (strain ATCC 15692 / DSM 22644 / CIP 104116 / JCM 14847 / LMG 12228 / 1C / PRS 101 / PAO1), UniProt A0A0F7KYQ8). Description: biochemical. The conditions noted are these: fluorescence assay, CCF2-FA substrate, 30 pM enzyme, 2 hours at 25° C.; read-out: VIM-1 IC50. The gist of the method:
as §1

In data set [4] the test system is Escherichia coli expressing NDM-1 (CLB30005, CLB30016). Type of data set: cell-based. The conditions noted are these: with imipenem 1 μg/ml; for Escherichia coli expressing NDM-1 (CLB30016) MITC95: 95% inhibition of bacterial growth; for Escherichia coli MITC95: NDM-1 strain, 95% inhibition of growth. In outline:
(§2)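 Clinical strains grown overnight on blood agar at 35°C, colonies suspended in saline, diluted 1:100 into 1.1×CAMHB. Test compound titrated with imipenem at 1 μg/ml; incubated 22–24 h at 35°C, growth read by absorbance.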

In data set [5] the test system is Klebsiella pneumoniae expressing VIM-1 (IHMA599644). It counts as cell-based. The conditions noted are these: for Klebsiella pneumoniae expressing VIM-1 (IHMA599644) MITC95: with imipenem 1 μg/ml, 95% inhibition of bacterial growth; for Klebsiella pneumoniae MITC95: VIM-1 strain IHMA599644, with imipenem 1 μg/ml, 95% inhibition of growth. The gist of the method: as §2

In data set [6] the test system is Serratia marcescens expressing IMP-1 (CL5741). It counts as cell-based. The conditions noted are these: for Serratia marcescens expressing IMP-1 (CL5741) MITC95: with imipenem 1 μg/ml, 95% inhibition of bacterial growth; for Serratia marcescens MITC95: IMP-1 strain CL5741, with imipenem 1 μg/ml, 95% inhibition of growth. The gist of the method: as §2
The subject of data set [7] is Pseudomonas aeruginosa efflux+ (MB9798), IMP-1. Type of data set: cell-based. Further details: Concentration of metallo-β-lactamase inhibitor which restores susceptibility of efflux + (MB9798) strain to imipenem: unit not given here. The conditions noted are these: C, D serine β-lactamase inhibitor closely related to relebactam; for P. aeruginosa expressing IMP-1, efflux + (MB9798) MITC95: concentration restoring susceptibility to imipenem at 2 μg/mL in the presence of a class A; for Concentration of metallo-β-lactamase inhibitor which restores susceptibility of efflux + (MB9798) strain to imipenem: imipenem at 2 μg/mL, in the presence of a class A. The gist of the method:
(§3)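 P. aeruginosa PAO1-derived IMP-1 strains, efflux+ MB9798 and efflux− MB9799, tested by standard microbroth MIC with imipenem and/or ceftazidime fixed, usually at CLSI breakpoint, plus fixed class A/C β-lactamase inhibitor against AmpC. Inhibitor titrated; concentration restoring susceptibility recorded; MB9798/MB9799 fold difference indicates efflux.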

Data set [8] deals with Pseudomonas aeruginosa efflux− (MB9799), IMP-1. It counts as cell-based. The conditions noted are these: C, D serine β-lactamase inhibitor closely related to relebactam; for P. aeruginosa expressing IMP-1, efflux − (MB9799) MITC95: concentration restoring susceptibility to imipenem at 2 μg/mL in the presence of a class A; for Concentration of metallo-β-lactamase inhibitor which restores susceptibility of efflux − (MB9799) strain to imipenem: imipenem at 2 μg/mL, in the presence of a class A. The gist of the method: as §3

The test system of data set [9] is Pseudomonas aeruginosa MB9798 vs MB9799. In outline: as §3
Setting [10] is: ratio MITC95 PA_9798/MITC95 PA_9799.
Where [11] appears, read: fold difference between efflux+ (MB9798) and efflux− (MB9799) strains, imipenem at 2 μg/mL.

pIC50: −log10 of the molar value. Where two headings read alike, the source gives them in different places.

Sequence of NDM-1 (C7C422 whole entry, looked up, species assumed): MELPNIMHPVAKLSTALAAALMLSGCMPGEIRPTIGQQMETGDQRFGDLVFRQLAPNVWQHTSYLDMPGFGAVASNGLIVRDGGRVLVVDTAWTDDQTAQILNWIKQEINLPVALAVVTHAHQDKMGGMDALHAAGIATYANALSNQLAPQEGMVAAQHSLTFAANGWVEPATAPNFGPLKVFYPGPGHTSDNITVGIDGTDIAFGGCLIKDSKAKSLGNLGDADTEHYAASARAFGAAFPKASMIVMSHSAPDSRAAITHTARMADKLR

Turning to `NCCNC(=O)c1cccc(-c2ccc(S(=O)(=O)NCCN)c(S(N)(=O)=O)c2-c2nn[nH]n2)c1N` [Example 204, 2-amino-N-(2-aminoethyl)-4′-(N-(2-aminoethyl)sulfamoyl)-5′-sulfamoyl-6′-(2H-tetrazol-5-yl)biphenyl-3-carboxamide], the pIC50 in data set [1] was 8.59; in data set [2] it was 9.28; in [3], 9.65. Besides, the “Escherichia coli expressing NDM-1 (CLB30016) MITC95” value in data set [4] was 1.563 µM. In addition, the “Klebsiella pneumoniae expressing VIM-1 (IHMA599644) MITC95” value in [5] amounted to 1.563 µM. Besides, in [6], the “Serratia marcescens expressing IMP-1 (CL5741) MITC95” value worked out at 1.563 µM. Also, in data set [7], the “P. aeruginosa expressing IMP-1, efflux + (MB9798) MITC95” value came to 0.7813 µM. Moreover, in data set [8], the “P. aeruginosa expressing IMP-1, efflux − (MB9799) MITC95” value worked out at 0.7813 µM. In addition, the Efflux ratio in data set [9] (setting [10]) is listed as 1.00.

As to `NCc1nc2cc(-c3ccc(S(=O)(=O)NC[C@H](O)CN)c(S(N)(=O)=O)c3-c3nn[nH]n3)ccc2[nH]1` [Example 464, (R)—N1-(3-amino-2-hydroxypropyl)-4-(2-(aminomethyl)-1H-benzo[d]imidazole-5-yl)-3-(2H-tetrazol-5-yl)benzene-1,2-disulfonamide], the figures for the pIC50 in [1], in data set [2] and in data set [3] were 8.74, 9.56 and 9.70, respectively. Besides, in data set [4], the “Escherichia coli MITC95” value stood at 0.7813 µM. Moreover, the “Klebsiella pneumoniae MITC95” value in data set [5] amounted to 1.563 µM. For the same compound, the “Serratia marcescens MITC95” value in data set [6] stood at 1.563 µM. In addition, in [7], the “Concentration of metallo-β-lactamase inhibitor which restores susceptibility of efflux + (MB9798) strain to imipenem” value was 0.7813. Also, in data set [8], the “Concentration of metallo-β-lactamase inhibitor which restores susceptibility of efflux − (MB9799) strain to imipenem” value is on record as 0.7813. Also, the Efflux ratio in data set [9] (setting [11]) was found to be 1.00.

For `C[C@@H](CN)NS(=O)(=O)c1ccc(-c2ccnc(N)c2)c(-c2nn[nH]n2)c1S(N)(=O)=O` [Example 398], the pIC50 in [1] is 8.13; in [2], 8.59; in [3] it was 9.03. The “Escherichia coli MITC95” value in data set [4] was determined as 3.125 µM. Also, in data set [5], the “Klebsiella pneumoniae MITC95” value is 3.125 µM. In data set [6], the “Serratia marcescens MITC95” value stood at 1.563 µM. The “Concentration of metallo-β-lactamase inhibitor which restores susceptibility of efflux + (MB9798) strain to imipenem” value in data set [7] was determined as 6.25. Besides, the “Concentration of metallo-β-lactamase inhibitor which restores susceptibility of efflux − (MB9799) strain to imipenem” value in [8] is on record as 1.563. Further, the Efflux ratio in data set [9] (setting [11]) amounted to 4.00.

As to `Nc1nc2c(-c3ccc(S(=O)(=O)NC[C@@H]4CNCCN4)c(S(N)(=O)=O)c3-c3nn[nH]n3)cccc2[nH]1` [Example 310, (S)-4-(2-amino-1H-benzo[d]imidazol-4-yl)-N1-(piperazin-2-ylmethyl)-3-(2H-tetrazol-5-yl)benzene-1,2-disulfonamide], the negative logarithm of the IC50 (pIC50) in data set [1] is 9.18; in data set [2], 10.28; in data set [3], 9.77. Also, the “Escherichia coli MITC95” value in [4] worked out at 0.7813 µM. In addition, in data set [5], the “Klebsiella pneumoniae MITC95” value was determined as 1.563 µM. The “Serratia marcescens MITC95” value in data set [6] is 0.7813 µM. Further, in data set [7], the “P. aeruginosa expressing IMP-1, efflux + (MB9798) MITC95” value is 0.7813 µM. Besides, the “P. aeruginosa expressing IMP-1, efflux − (MB9799) MITC95” value in [8] was 0.7813 µM. In data set [9] (setting [10]), the Efflux ratio is reported as 1.00.

As for `Nc1nc2c(-c3ccc(S(=O)(=O)N[C@H]4CCNC4)c(S(N)(=O)=O)c3-c3nn[nH]n3)cccc2[nH]1` [Example 162, 4-(2-amino-1H-benzo[d]imidazol-4-yl)-N^1-((S)-pyrrolidin-3-yl)-3-(2H-tetrazol-5-yl)benzene-1,2-disulfonamide], the pIC50 in data set [1] is 9.13; in [2] it was 10.22; in data set [3] it was 9.81. Also, the “Escherichia coli expressing NDM-1 (CLB30016) MITC95” value in [4] was determined as 0.3203 µM. Also, in data set [5], the “Klebsiella pneumoniae expressing VIM-1 (IHMA599644) MITC95” value turned out to be 0.9844 µM. The “Serratia marcescens expressing IMP-1 (CL5741) MITC95” value in [6] was determined as 0.5573 µM. The “P. aeruginosa expressing IMP-1, efflux + (MB9798) MITC95” value in [7] turned out to be 0.4271 µM. Moreover, the “P. aeruginosa expressing IMP-1, efflux − (MB9799) MITC95” value in data set [8] was 0.4922 µM. Besides, the Efflux ratio in [9] (setting [10]) is recorded as 0.87.

The values are drawn from patent US10221163B2 (priority 2015, dated 2019).
